T/C data for 30 molecules are collected here from PubChem BioAssay AID330 (DTP/NCI, 2004).

Where “and” joins values, the source holds several entries; their conditions need not be identical. Identical values can stand only once. Toxic doses and inconclusive results are not listed. Square brackets hold non-standard residues; d marks the D form. Peptide text beside a SMILES is read from it. ξ: configuration not given here. ξN = NC(=O)CC(N)C(=O)O

This assay concerns P388 leukemia ip, CD2F1 mice, survival T/C. Kind of assay: NCI In Vivo Anticancer Drug Screen. Data for tumor model P388 Leukemia (intraperitoneal) in CD2F1 (CDF1) mice. Conditions: endpoint: median survival time, higher = longer survival. The essentials:
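Mice carrying the transplanted tumor received test compound or vehicle. Survival was recorded in each group, and the value is the treated-group measurement divided by that of the vehicle-treated control group.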

The mark [1] stands for this setting: dose: 25.0 mg/kg/injection, schedule: Q01DX009 (ip), vehicle: Klucel (hydroxypropylcellulose) (HPC).
Where [2] appears, read: dose: 50.0 mg/kg/injection, schedule: Q01DX009 (ip), vehicle: Klucel (hydroxypropylcellulose) (HPC).
Where [3] appears, read: dose: 50.0 mg/kg/injection, schedule: Q01DX009 (ip), vehicle: saline.
Where [4] appears, read: dose: 100.0 mg/kg/injection, schedule: Q01DX009 (ip), vehicle: Klucel (hydroxypropylcellulose) (HPC).
[5] abbreviates: dose: 100.0 mg/kg/injection, schedule: Q01DX009 (ip), vehicle: saline.
Setting [6] is: dose: 200.0 mg/kg/injection, schedule: Q01DX009 (ip), vehicle: Klucel (hydroxypropylcellulose) (HPC).
The mark [7] stands for this setting: dose: 200.0 mg/kg/injection, schedule: Q01DX009 (ip), vehicle: saline.
[8] abbreviates: dose: 50.0 mg/kg/injection, schedule: Q01DX005 (ip), vehicle: saline.
Where [9] appears, read: dose: 100.0 mg/kg/injection, schedule: Q01DX005 (ip), vehicle: saline.
[10] abbreviates: dose: 200.0 mg/kg/injection, schedule: Q01DX005 (ip), vehicle: saline.
Where [11] appears, read: dose: 50.0 mg/kg/injection, schedule: Q01DX005 (ip), vehicle: Klucel (hydroxypropylcellulose) (HPC).
Where [12] appears, read: dose: 100.0 mg/kg/injection, schedule: Q01DX005 (ip), vehicle: Klucel (hydroxypropylcellulose) (HPC).
Where [13] appears, read: dose: 200.0 mg/kg/injection, schedule: Q01DX005 (ip), vehicle: Klucel (hydroxypropylcellulose) (HPC).
Where [14] appears, read: dose: 50.0 mg/kg/injection, schedule: Q01DX005 (ip), vehicle: saline with Tween-80.
Where [15] appears, read: dose: 100.0 mg/kg/injection, schedule: Q01DX005 (ip), vehicle: saline with Tween-80.
Setting [16] is: dose: 200.0 mg/kg/injection, schedule: Q01DX005 (ip), vehicle: saline with Tween-80.
The mark [17] stands for this setting: dose: 50.0 mg/kg/injection, schedule: Q01DX009 (ip), vehicle: saline with Tween-80.
Where [18] appears, read: dose: 100.0 mg/kg/injection, schedule: Q01DX009 (ip), vehicle: saline with Tween-80.
[19] abbreviates: dose: 200.0 mg/kg/injection, schedule: Q01DX009 (ip), vehicle: saline with Tween-80.

For the molecule `CC(=O)NC(Cc1cc(I)c(O)c(I)c1)C(=O)O` (centres undefined), the T/C is 94 % of control under setting [1]; 88 % of control under setting [2]; 100 % of control under setting [3]; 94 % of control under setting [4]; 107 % of control under setting [5]; 94 % of control under setting [6]. Besides, the T/C under setting [7] is 105 % of control.

In the case of `CN=C(N)NN=C(c1ccccc1)c1ccccc1`, the T/C was 104 % of control (dose: 25.0 mg/kg/injection, schedule: Q04DX002 (ip), vehicle: saline with Tween-80); 109 % of control (dose: 50.0 mg/kg/injection, schedule: Q04DX002 (ip), vehicle: saline with Tween-80); 110 % of control (dose: 100.0 mg/kg/injection, schedule: Q04DX002 (ip), vehicle: saline with Tween-80).

Take `CCN(CC)CCCN1CC(=O)N2CCCCN2C(=O)C1`: the T/C was 102 % of control under setting [8], 100 % of control under setting [9] and 100 % of control under setting [10].

Turning to `CC1(C)COC2(C)N(c3ccccc3)C(=O)ON12` (centres undefined), the T/C is, setting by setting: under setting [11], 100 % of control; under setting [12], 100 % of control; under setting [13], 97 % of control.

For `CC(=O)/C(=C\c1ccc(Cl)c(Cl)c1)C(=O)C(C)CN(C)C` (centres undefined), the T/C is 119 % of control and 120 % of control (dose: 12.5 mg/kg/injection, schedule: Q01DX005 (ip), vehicle: saline with Tween-80); 118 % of control (dose: 25.0 mg/kg/injection, schedule: Q01DX005 (ip), vehicle: saline with Tween-80); 115 % of control and 116 % of control and 121 % of control under setting [14].

On to `CC(=O)Nc1cc2cc(NC(=O)C(Cl)(Cl)Cl)ccc2oc1=O`, for which the T/C was 98 % of control (dose: 60.0 mg/kg/injection, schedule: Q01DX005 (ip), vehicle: Klucel (hydroxypropylcellulose) (HPC)); 100 % of control (dose: 120.0 mg/kg/injection, schedule: Q01DX005 (ip), vehicle: Klucel (hydroxypropylcellulose) (HPC)); 100 % of control (dose: 240.0 mg/kg/injection, schedule: Q01DX005 (ip), vehicle: Klucel (hydroxypropylcellulose) (HPC)).

Take `S=C(NCc1cccnc1)Nc1ccc(Cl)c(Cl)c1`: the T/C under setting [2] was 104 % of control, the T/C under setting [4] is 108 % of control and the T/C under setting [6] is 104 % of control.

Take `CCOc1ccc(Cc2ccc3c(c2)OCO3)cc1C`: the T/C by setting is: under setting [14], 101 % of control; under setting [15], 108 % of control; under setting [16], 111 % of control.

In the case of `Cc1ccc(Br)c(C(O)(C(F)(F)F)C(F)(F)F)c1C`, the T/C is 107 % of control under setting [2] and 106 % of control under setting [4].

With `NC(CC(=O)O)P(=O)(O)O` (centres undefined), the T/C runs as follows: under setting [3], 93 % of control; under setting [5], 98 % of control; under setting [7], 107 % of control.

For `CCCCCCCCCCC(C)c1ccc(S(=O)(=O)O)cc1` (centres undefined), the T/C by setting is: (dose: 50.0 mg/kg/injection, schedule: Q01DX001 (ip), vehicle: saline) 100 % of control; (dose: 100.0 mg/kg/injection, schedule: Q01DX001 (ip), vehicle: saline) 90 % of control; (dose: 200.0 mg/kg/injection, schedule: Q01DX001 (ip), vehicle: saline) 95 % of control.

As for `COC(=O)c1ncn(Cc2ccccc2)c1O` (tested in a mixture with another compound), the T/C by setting is: (dose: 60.0 mg/kg/injection, schedule: Q01DX005 (ip), vehicle: water) 93 % of control; (dose: 120.0 mg/kg/injection, schedule: Q01DX005 (ip), vehicle: water) 107 % of control; (dose: 240.0 mg/kg/injection, schedule: Q01DX005 (ip), vehicle: water) 110 % of control.

Turning to `O=C1CC2C(=O)N(Cc3ccccc3)C(=O)C2C(=O)N1` (centres undefined), the T/C by setting is: under setting [14], 99 % of control; under setting [15], 97 % of control; under setting [16], 92 % of control.

With `CCCN(CCC)C(=O)C(c1ccccc1)C1(O)CCCC1` (centres undefined), the T/C is 101 % of control under setting [11], 102 % of control under setting [12] and 102 % of control under setting [13].

For `CN1C(=O)C23CCCN2C(=O)C1(C)SC(=O)S3` (centres undefined), the T/C is, setting by setting: under setting [3], 98 % of control; under setting [5], 101 % of control; under setting [7], 98 % of control.

For `CC1(C)N2c3ccc(Cl)cc3C(c3ccccc3)N1c1ccc(Cl)cc1C2c1ccccc1` (centres undefined), the T/C runs as follows: under setting [2], 98 % of control; under setting [4], 95 % of control; under setting [6], 95 % of control.

On to `CC12CC(CC1=O)CC2S(=O)(=O)O` (centres undefined), for which the T/C is 96 % of control (dose: 100.0 mg/kg/injection, schedule: Q01DX001 (ip), vehicle: saline with Tween-80) and 102 % of control (dose: 200.0 mg/kg/injection, schedule: Q01DX001 (ip), vehicle: saline with Tween-80).

As for `NCC(=O)NC(CC(N)=O)C(=O)O` (centres undefined) (H-Gly-[ξN]-OH), the T/C is 119 % of control under setting [3], 109 % of control under setting [5] and 114 % of control under setting [7].

In the case of `C=CCC(O)(C(F)(F)F)C(F)(F)F`, the T/C reads like this: under setting [17], 105 % of control; under setting [18], 103 % of control; under setting [19], 115 % of control.

As for `CNC(=O)Oc1cc(C)c[n+]([O-])c1`, the T/C is 100 % of control under setting [8], 104 % of control under setting [9] and 104 % of control under setting [10].

Turning to `Cc1cc(Nc2ccc(N(C)C)cc2)c2ccc(N(C)C)cc2n1`, the T/C was 95 % of control (dose: 100.0 mg/kg/injection, schedule: Q04DX002 (ip), vehicle: acid diluted with saline); 103 % of control (dose: 200.0 mg/kg/injection, schedule: Q04DX002 (ip), vehicle: acid diluted with saline); 96 % of control (dose: 400.0 mg/kg/injection, schedule: Q04DX002 (ip), vehicle: acid diluted with saline).

As to `CCCCCCCCCCCCOC(=O)c1ccc(I)cc1`, the T/C is, setting by setting: under setting [17], 97 % of control; under setting [18], 97 % of control; under setting [19], 102 % of control.

With `c1c(-c2cc(C3CC3)[nH]n2)n[nH]c1C1CC1`, the T/C is 101 % of control (dose: 60.0 mg/kg/injection, schedule: Q01DX005 (ip), vehicle: saline); 97 % of control (dose: 120.0 mg/kg/injection, schedule: Q01DX005 (ip), vehicle: saline); 100 % of control (dose: 240.0 mg/kg/injection, schedule: Q01DX005 (ip), vehicle: saline).

For the molecule `Cc1ccc(S(=O)(=O)N=P(c2ccccc2)(c2ccccc2)c2ccccc2)cc1`, the T/C under setting [18] is 91 % of control and the T/C under setting [19] was 95 % of control.

Take `COc1cc(C=Nc2cc(Cl)c(Cl)c(Cl)c2)ccc1N(CCCl)CCCl`: under “dose: 0.79 mg/kg/injection, schedule: Q01DX009 (ip), vehicle: Klucel (hydroxypropylcellulose) (HPC)”, the T/C is 105 % of control.

For `CC(Cl)CN(CC(C)Cl)c1ccc(-c2ccccc2)cc1` (centres undefined), the T/C was 105 % of control and 109 % of control under setting [2]; 124 % of control under setting [4].

For `O=C(Nc1ccccc1C(=O)O)c1cc([N+](=O)[O-])cc([N+](=O)[O-])c1`, the T/C reads like this: (dose: 25.0 mg/kg/injection, schedule: Q01DX009 (ip), vehicle: saline with Tween-80) 114 % of control; under setting [17], 113 % of control; under setting [18], 109 % of control.

As for `O=S(=O)(O)c1ccc2cccc(N=Nc3c(O)ccc4ccccc34)c2c1`, the T/C is, setting by setting: (dose: 12.5 mg/kg/injection, schedule: Q01DX009 (ip), vehicle: saline) 104 % of control; (dose: 25.0 mg/kg/injection, schedule: Q01DX009 (ip), vehicle: saline) 101 % of control; under setting [3], 93 % of control.

Regarding `O=C(CCS(=O)O)c1ccccc1`, the T/C by setting is: (dose: 100.0 mg/kg/injection, schedule: Q04DX002 (ip), vehicle: saline) 101 % of control; (dose: 200.0 mg/kg/injection, schedule: Q04DX002 (ip), vehicle: saline) 100 % of control; (dose: 400.0 mg/kg/injection, schedule: Q04DX002 (ip), vehicle: saline) 94 % of control.

Consider `c1ccc(-c2nc3cnccc3o2)cc1`, for which the T/C runs as follows: (dose: 6.25 mg/kg/injection, schedule: Q01DX009 (ip), vehicle: Klucel (hydroxypropylcellulose) (HPC)) 103 % of control; (dose: 12.5 mg/kg/injection, schedule: Q01DX009 (ip), vehicle: Klucel (hydroxypropylcellulose) (HPC)) 105 % of control; under setting [1], 114 % of control; under setting [2], 112 % of control.
